Results reported in patent US20140017230A1, “CHRONIC LYMPHOCYTIC LEUKEMIA (CLL) BIOMARKERS” (HOFFMANN-LAROCHE INC., priority 2011, published 2014).

What was measured:
CLL patients = assay: Phase III trial in CLL patients, R-FC vs FC: progression free survival (PFS) by pretreatment biomarker expression in CD19+ PBMC; assay type: in vivo, human; conditions: for Median PFS PTK2 Exon 1.0 ST / Median PFS PTK2 U133 plus2.0 / Median PFS PTK2 qRT-PCR / Median PFS miRNA151 DISCOVARRAY / Median PFS miRNA151 qRT-PCR / Median PFS miRNA409 DISCOVARRAY / Median PFS miRNA409 qRT-PCR: CLL patients; for Median PFS PTK2 Exon 1.0 ST / Median PFS PTK2 U133 plus2.0 / Median PFS PTK2 qRT-PCR: PTK2 expression in CD19+ cells
Method: Pretreatment patient samples were analyzed from an international, multicenter, open-label, phase III trial, randomizing CLL patients to receive R-FC (rituximab plus fludarabine/cyclophosphamide) or FC (fludarabine/cyclophosphamide) alone. […] The study protocol was approved by institutional review boards at participating centers and all patients gave written informed consent. Details on trial design and eligibility criteria have been described in Robak et al. J. Clin. Oncol. 28(10):1756-1765 (2010). Patients were selected on the availability of RNA and the written informed consent to participate in molecular genetic analyses of peripheral blood samples.
Pretreatment Peripheral Blood Mononuclear Cell (PBMC) samples positively selected for CD19+ cells were available from n=301 patients. CD19 separation was performed by magnetic bead separation according to the manufacturer's protocol (Miltenyi, Germany).
Pretreatment clinical features i.e demographics, prognostic markers (cytogenetic aberrations like del(17p), del(11q), ZAP70 and CD38 expression, IgVH status), progression free survival (PFS) were compared using the Fisher's exact, Mann-Whitney, or log-rank tests. A p-value of <0.05 was considered statistically significant.
Two approaches using a Cox regression model were used to identify genes and miRNA associated with survival. First approach considered the models below.
For the different tables and graphs appearing in this document where median PFS was computed, mRNA and miRNA signal intensities were dichotomized using the median value as a cutoff.

[1] = test system: 3′UTR luciferase reporter constructs in HeLa cells; assay: 3′UTR luciferase reporter assay with miRNA151 3p mimic vs scrambled mimic; assay type: cell-based; conditions: 10 nM mimic, 24 hours post-transfection, normalized to scrambled control
Method: Predicted targets were downloaded from TARGETSCAN 5.1™ (http://www.targetscan.org/) and expression was extracted from the mRNA expression profiling data, irrespective of predicted site conservation. Anti-correlations with miRNAs were determined by comparing miRNA array and mRNA array data and computing Pearson correlation coefficients. […] Subsequently, 3′UTRs that met this threshold were cloned upstream into 3′UTR luciferase reporter constructs (Switchgear Genomics) and 100 ng of each construct was transfected into HeLa cells (ATCC) with 25 ng pRL-CMV, 10 nM miRNA151 3p mimic (Dharmacon) or scrambled mimic in 96-well plates. Luciferase activity was determined 24 hours post-transfection and all data were normalized to renilla luciferase transfection control and scrambled control mimic. Three biological replicates were performed. Statistical significance for a difference between scrambled control and miRNA151 3p mimic was determined by a 2-sided Student's t-test.

[2] = miRNA signal < median miRNA signal
[3] = miRNA signal > median miRNA signal

Q: For fludarabine/cyclophosphamide [FC], which “HR for PFS, miRNA151 < median vs > median within treatment arm” value (CLL patients; Array) is on record?
A: Its value is 0.99.

Q: And the “HR for PFS, miRNA409 < median vs > median within treatment arm” value (CLL patients; Array)?
A: Its value is 1.12.

Q: And the “Median PFS PTK2 Exon 1.0 ST” value (CLL patients; gene < median)?
A: The value was 17.9 months.

Q: And the “Median PFS PTK2 U133 plus2.0” value (CLL patients; gene < median)?
A: Its value is 17.9 months.

Q: And the “Median PFS PTK2 qRT-PCR” value (CLL patients; gene < median)?
A: The value was 17.9 months.

Q: And the “Median PFS PTK2 Exon 1.0 ST” value (CLL patients; gene > median)?
A: The value was 21.5 months.

Q: And the “Median PFS PTK2 U133 plus2.0” value (CLL patients; gene > median)?
A: The value was 21.5 months.

Q: And the “Median PFS PTK2 qRT-PCR” value (CLL patients; gene > median)?
A: The value was 21.5 months.

Q: What about the “Median PFS miRNA151 DISCOVARRAY” value (CLL patients; [2]) of the same substance?
A: Its value is 18 months.

Q: And the “Median PFS miRNA151 qRT-PCR” value (CLL patients; [2])?
A: Its value is 17.9 months.

Q: And the “Median PFS miRNA409 DISCOVARRAY” value (CLL patients; [2])?
A: The value was 21.6 months.

Q: And the “Median PFS miRNA409 qRT-PCR” value (CLL patients; [2])?
A: The value was 18.3 months.

Q: What about the “Median PFS miRNA151 DISCOVARRAY” value (CLL patients; [3]) of the same substance?
A: Its value is 18.5 months.

Q: What about the “Median PFS miRNA151 qRT-PCR” value (CLL patients; [3]) of the same substance?
A: The value was 20.7 months.

Q: What about the “Median PFS miRNA409 DISCOVARRAY” value (CLL patients; [3]) of the same substance?
A: Its value is 18 months.

Q: What about the “Median PFS miRNA409 qRT-PCR” value (CLL patients; [3]) of the same substance?
A: Its value is 18.3 months.

Q: And the “HR for PFS, PTK2 < median vs > median within treatment arm” value (CLL patients; Exon 1.0 ST, CD19+ cells)?
A: The value was 0.86.

Q: What about the “HR for PFS, miRNA151 < median vs > median within treatment arm” value (CLL patients; RT-PCR) of the same substance?
A: The value was 0.84.

Q: And the “HR for PFS, miRNA409 < median vs > median within treatment arm” value (CLL patients; RT-PCR)?
A: The value was 1.03.

Q: What about the “HR for PFS, PTK2 < median vs > median within treatment arm” value (CLL patients; U133 + 2, CD19+ cells) of the same substance?
A: The value was 0.86.

Q: And the “HR for PFS, PTK2 < median vs > median within treatment arm” value (CLL patients; qRT-PCR, CD19+ cells)?
A: Its value is 0.77.

Q: How did the “3′UTRs showing a statistically significant reduction in luciferase activity (5 out of the 18)” value [1] turn out when “miRNA151 3p: miRNA151 3p mimic (Dharmacon); miRNA comprising the sequence CUAGACUGAAGCUCCUUGAGG (SEQ ID NO: 1) (synthetic mimic duplex, passenger strand not listed, further chemistry not given here; listed as Homo sapiens)” was run?
A: Its value is 28%.
